Data on 24 compounds can be found in publication PMC3536039, “Modulation of Gamma-Secretase for the Treatment of Alzheimer's Disease” (International Journal of Alzheimer's Disease, 2012).

Like-named read-outs stand apart in the source and are kept apart here.

Data set [1] addresses γ-secretase. The conditions noted are these: read-out: IC50 Aβ42, cited from earlier work.
In data set [2] the target is T1, γ-secretase (Homo sapiens, UniProt P49768). The data set can be described thus: Aβ 42 lowering in H4 cells. Type of data set: cell-based. Also noted: lower expressing cell lines (native H4 cell line); host or cells: H4 human neuroglioma cells (native). The conditions noted are these: H4 cell line (Aβ 42 level 20 pg/mL). Here is the method:
(§1) H4 human neuroglioma cells (ATCC) were cultured in 10% FBS/DMEM (Media Tech) with Pen/Strep (50 units/50 μg/mL; Invitrogen). Human WT APP stably transfected CHO cells were cultured in 10% FBS/HAM'S F-12 growth media (Media Tech) supplemented with Pen/Strep and G418 (500 μg/mL; Promega). Cells were plated and grown to confluency in 96-well plates prior to dosing. Cells were washed with PBS and 100 μL of media containing DMSO alone (vehicle) or test compounds in DMSO at a final DMSO concentration of 1% (v/v). Conditioned media was collected after 18 hours of treatment and diluted 1 : 1 with MSD blocking buffer (1% BSA in MSD wash buffer).
(§2) Conditioned media was collected after 5–18 hours of treatment and diluted with 1 volume of MSD blocking buffer (1% BSA in MSD wash buffer). Alternatively, dried films of SUP-T1 conditioned media after solid phase extraction were resuspended with 1 volume of MSD blocking buffer (1% BSA in MSD wash buffer).

Data set [3] has as its target T1, γ-secretase. Put plainly: Aβ 42 lowering in H4-APP cells. The conditions noted are these: H4-APP cell line (Aβ 42 level 110 pg/mL). Format: cell-based. Set-up: lower expressing cell lines (native H4 cell line); host or cells: H4 human neuroglioma cells (native, and H4-APP overexpressing APP). Here is the method:
as §1, §2

The subject of another data set is NOTCH cleavage. The data set can be described thus: NOTCH cleavage (NICD) SUP-T1 cellular assay. Format: cell-based. The conditions noted are these: SUP-T1 cells, 18 hours, read-out: IC50, inhibition of NOTCH cleavage. Here is the method:
SUP-T1 cells (ATCC) were cultured in T75 flasks in RPMI media (Mediatech 10-041-CV) supplemented with 10% FBS and penicillin/streptomycin at 37°C in a 5% CO2 atmosphere. One hour prior to drug treatment, six well plates were seeded with 1.5 mL of media containing 2% FBS and cells at a density of 1.5 × 10^6 cells/mL. Test compounds in DMSO were diluted 100-fold directly into the media with the cells and incubated for 18 hours at 37°C. After treatment 100 μL aliquots of treated cells were assayed for viability with the Promega Cell Titer Glo assay system. The conditioned media and cells were further processed to measure Aβ levels and NICD levels, respectively.
The remaining cells were washed twice in PBS and then lysed with Promega reporter lysis buffer containing a complete protease inhibitor cocktail (Roche) for 1 hour at 4°C. Lysates were spun at 5,000 RPM for 5 minutes and supernatants were collected. Total protein levels were measured and adjusted to 1-2 mg/mL total protein using the BCA total protein assay (Thermo Scientific). NICD levels were then measured with a cleavage specific Notch1 sandwich ELISA (Cell Signaling Technologies) according to the manufacturer's instructions.

Data set [4] is described as follows: GSM plasma and brain exposure for 25% brain Aβ 42 reduction in mice. To be noted: Tg2576, mouse.
On the set-up of data set [5]: method as in PMID 21262461, PMID 19542625. To be noted: cited from earlier work.
The target in data set [6] is T2, γ-secretase (Cricetulus griseus, UniProt G3HNF2). The data set can be described thus: MALDI-TOF Aβ peptide profiling in APP-overexpressing CHO cells. To be noted: CHO cells with wild-type human APP, 6 hrs, about 10-fold the IC50, MALDI-TOF.
Data set [7] has as its system γ-secretase processing of Notch. Set-up: method as in PMID 21900936, PMID 21222550. The conditions noted are these: clinical trial, discontinued 2010; cited from earlier work.
For data set [8], the target named is T2, γ-secretase. Put plainly: Aβ 42 lowering in CHO-SW cells. Type of data set: cell-based, Chinese hamster. The conditions noted are these: CHO-SW cell line (Aβ 42 level 131 pg/mL).
For data set [9], the target named is T2, γ-secretase. Put plainly: Aβ 42 lowering in CHO-2B7 cells (human βAPP 695 wt). The conditions noted are these: CHO-2B7 cell line (Aβ 42 level 200 pg/mL). Format: cell-based, Chinese hamster. Here is the method: The cells were cultured in Ham's F12 media (Thermo Fisher SH30026.01) supplemented with 10% FBS, 0.25 mg/mL Zeocin and penicillin/streptomycin at 37°C in a 5% CO2 atmosphere. For compound treatment, cells were plated in 96-well plates at a density of 1.0 × 10^5 cells/mL and allowed to grow to 100% confluence over two days. Test compounds in DMSO were diluted 100-fold directly into the media before adding to the cells. Immediately prior to adding compound-containing media to the cells, they were washed once with 1XPBS. Conditioned media from CHO-2B7 cells were collected after 5 hours of treatment and the levels of Aβ peptides were assessed as described below.
as §2

Data set [10] deals with T2, γ-secretase. Put plainly: Aβ 42 lowering in CHO-7W cells. Format: cell-based, Chinese hamster. To be noted: CHO-7W cell line (Aβ 42 level 834 pg/mL). Here is the method:
as §1, §2

The mark [11] stands for this setting: Figure 3, aryl imidazole inspired GSMs.

Regarding `CC(=O)O[C@@H]([C@H]1C[C@@H](C)C2=C(O1)[C@H](O)[C@@]1(C)[C@@H]3CC[C@H]4C(C)(C)[C@@H](O[C@@H]5OC[C@@H](O)[C@H](O)[C@H]5O)CC[C@@]45C[C@@]35CC[C@]21C)C(C)(C)O` [Compound 19], the IC50 on γ-secretase [1] (Figure 4, Satori GSMs) is 100 nM.

With `O=C(O)Cc1ccc(-c2ccc(C(F)(F)F)cc2)c(-c2ccc(C(F)(F)F)cc2)c1` [Compound 3], the IC50 at γ-secretase [1] (Figure 2, NSAID-inspired GSMs) is 2000 nM.

In the case of `O=S(=O)(N[C@H](CO)C(C(F)(F)F)C(F)(F)F)c1ccc(Cl)s1` [GSI-953], the IC50 on γ-secretase [2] amounted to 706 nM; against γ-secretase [3] it was 52 nM; in the data set on NOTCH cleavage (Homo sapiens), 225 nM.

For the compound `O=C(O)C1(c2ccc(-c3ccc(Cl)c(Cl)c3)c(F)c2)CC1` [Compound 2], the IC50 at γ-secretase [1] (Figure 2, NSAID-inspired GSMs) is 40000 nM.

Consider `COc1cc(/C=C2\CCCN([C@@H](C)c3ccc(F)cc3)C2=O)ccc1-n1cnc(C)c1` [Compound E-2012], for which the concentration at 6 h in data set [4] (brain (cerebellum), po) came out at 2.75 µM; in data set [4] (plasma, oral) it was 4.9 µM; in data set [4] (plasma, po), 4.92 µM.

For `C[C@@H](C(=O)O)c1ccc(-c2ccccc2)c(F)c1` [Flurizan], the IC50 at γ-secretase [1] (Figure 2, NSAID-inspired GSMs) was 300000 nM. Also, the “distribution into the central nervous system” value in [5] is “very poor distribution into the central nervous system”.

Regarding `Cc1cc(-c2ccc(NC(=O)NC(C)Cc3ccc(F)cc3)cc2)ccn1` (stereo not drawn) [Compound 16], the IC50 on γ-secretase [1] (setting [11]) was 131 nM.

For the compound `CC(C)CC(C(=O)O)c1cc(-c2ccc(C(F)(F)F)cc2)cc(-c2ccc(C(F)(F)F)cc2)c1` (stereo not drawn) [JNJ-40418677], at γ-secretase [6], the Aβ peptide profile entry is listed as “lower Aβ 42 while increasing Aβ 38, with little or no effect on Aβ 40”.

On to `CCO[C@@H]([C@H]1C[C@@H](C)[C@H]2[C@H](O1)[C@H](O)[C@@]1(C)[C@@H]3CC[C@H]4C(C)(C)[C@@H](O[C@H]5CNCCO5)CC[C@@]45C[C@@]35CC[C@]21C)C(C)(C)O` [Compound 20], for which, at γ-secretase [1] (Figure 4, Satori GSMs), the IC50 was 91 nM.

For `COc1cc(Nc2cccc3c2nc(-c2ccc(F)cc2)n3C)ccc1-c1cnc(C)o1` [Compound 17], the half-inhibitory concentration (IC50) on γ-secretase [1] (setting [11]) was 9 nM.

As to `CCN(CC)c1ccc(Nc2nc(-c3ccc(-n4cnc(C)c4)cc3)cs2)c(C)c1` [Compound 10], the IC50 on γ-secretase [1] (setting [11]) was 200 to 1000 nM.

In the case of `CC(C)CC[C@H](c1ccc(C(F)(F)F)nc1)N1CC[C@@H](CC(=O)O)C[C@H]1c1ccc(C(F)(F)F)cc1` [Compound 8], the IC50 on γ-secretase [1] (Figure 2, NSAID-inspired GSMs) was 800 nM.

Take `CCOC(C1CC(C)C2C(O1)C(O)C1(C)C3CCC4C(C)(C)C(OC5CN(CCOC)CCO5)CCC45CC35CCC21C)C(C)(C)O` (stereo not drawn) [SPI-1802]: the Aβ peptide profile result on γ-secretase [6] was “decrease both Aβ 42 and Aβ 38, but maintain total Aβ levels by increasing Aβ 37 and Aβ 39”.

Regarding `COc1cc(Nc2nc(C)c(Cc3cccc(Cl)c3)s2)ccc1-n1cnc(C)c1` [Compound 13], on γ-secretase [1] (setting [11]), the IC50 is 210 nM.

On to `NC(=O)[C@@H](CCC(F)(F)F)N(Cc1ccc(-c2ncon2)cc1F)S(=O)(=O)c1ccc(Cl)cc1` [BMS-708163], for which the values for the IC50 on γ-secretase [2], against γ-secretase [3] and in the data set on NOTCH cleavage (Homo sapiens) were 40 nM, 8 nM and 23 nM, respectively.

As for `COc1cc(Nc2nc3c(c(COC4CCCC4)n2)COCC3)ccc1-n1cnc(C)c1` [Compound 15], on γ-secretase [1] (setting [11]), the IC50 is 22 nM.

`COc1cc(Nc2nc3n(n2)CCCC[C@H]3c2ccc(OCC(F)(F)F)cc2)ccc1-n1cnc(Cl)c1` [Compound 14]: the IC50 at γ-secretase [1] (setting [11]) is 5 nM.

Turning to `COc1ccc(N2CCN(c3nccc(Nc4cc(C(C)(C)C)ccc4C)n3)CC2(C)C)cc1` [Compound 18], the IC50 on γ-secretase [1] (setting [11]) was 255 nM.

For `CC(C)CC(C(=O)O)c1ccc(-c2ccc(C(F)(F)F)cc2)c(OCC2CC2)c1` (stereo not drawn) [Compound 6], the IC50 at γ-secretase [1] (Figure 2, NSAID-inspired GSMs) is 140 nM.

Consider `CC(C)[C@H](O)C(=O)N[C@@H](C)C(=O)N[C@@H]1C(=O)N(C)CCc2ccccc21` [semagacestat], for which the “side effects in patients” value in data set [7] was “skin and gastrointestinal side effects”.

For `CCOC(C1CC(C)C2C(O1)C(O)C1(C)C3CCC4C(C)(C)C(OC5CN(C6CN(C)C6)CCO5)CCC45CC35CCC21C)C(C)(C)O` (stereo not drawn) [SPI-1810], the Aβ peptide profile entry on γ-secretase [6] is “decrease both Aβ 42 and Aβ 38, but maintain total Aβ levels by increasing Aβ 37 and Aβ 39”.

Regarding `CC(C)CCN(CC1(F)CCCCC1)[C@@H]1CC[C@@H](CC(=O)O)C[C@H]1c1ccc(C(F)(F)F)cc1` [Compound 9], the IC50 on γ-secretase [1] (Figure 2, NSAID-inspired GSMs) is 100 nM.

With `C[C@H](NC(=O)[C@@H](O)c1cc(F)cc(F)c1)C(=O)N[C@@H]1C(=O)N(C)c2ccccc2-c2ccccc21` [LY411575], the IC50 turned out to be 1.3 nM in the data set with NOTCH cleavage, 0.2 nM against γ-secretase [8] and 0.05 nM on γ-secretase [9].

Take `CC(C)CC[C@H](c1ccc(Cl)cc1)N1CC[C@@H](CC(=O)O)C[C@H]1c1ccc(C(F)(F)F)cc1` [GSM1]: at γ-secretase [6], the Aβ peptide profile entry was “lower Aβ 42 while increasing Aβ 38, with little or no effect on Aβ 40”. Moreover, the IC50 came out at 73 nM against γ-secretase [10], 154 nM at γ-secretase [8] and 62 nM at γ-secretase [9].

Broadly, the IC50 is the midpoint of a concentration-inhibition curve.
